Laboratory results from patent US12590094B2, “Compounds for the treatment of neurodegenerative and metabolic disorders” (UNIVERSITY OF FLORIDA RESEARCH FOUNDATION, INCORPORATED, priority 2019, dated 2026).
Where two headings read alike, the source gives them in different places.

Assays:
Cells exposed to TPrP = conditions: for EC50: read-out: Viability EC50
[1] = test system: PK1 neuroblastoma cells treated with TPrP; test: cells; format: cell-based; conditions: Neuroblastoma cell, read-out: NAD EC50
[2] = test system: PK1 neuroblastoma cells treated with TPrP; test: cells; format: cell-based; conditions: Neuroblastoma cell, read-out: Viability EC50

Row | Structure (SMILES) | Viability EC50: % effective (Cells exposed to TPrP; at 1 nM) | EC50 (Cells exposed to TPrP) | EC50 [1] | EC50 [2] | Viability EC50: % effective (Cells exposed to TPrP)
1 | O=C(NCCCn1ccnc1)c1cnn2c(C(F)F)cc(-c3ccccc3)nc12 [SR0-24084] | ~40% effective at 1 nM, fully effective at 10 nM | – | – | – | –
2 | COc1ccc(-c2cc(C(F)(F)F)n3ncc(C(=O)NCCCn4ccnc4C)c3n2)cc1 [SR0-31108] | – | > 50 nM | – | – | –
3 | COc1ccc(-c2cc(=O)c3c(OC)c(OC)c(OC)cc3o2)cc1OC [SR-05000002257, 2-(3,4-dimethoxyphenyl)-5,6,7-trimethoxy-4H-chromen-4-one] | – | – | 3600 nM | 323 nM | –
4 | COc1ccc(-c2cc(=O)c3c(O)c(OC)c(O[C@H]4O[C@H](CO[C@@H]5O[C@@H](C)[C@H](O)[C@@H](O)[C@H]5O)[C@@H](O)[C@H](O)[C@H]4O)cc3o2)cc1 [SR5-2766, pectolinargenin 7-[6-O-(6-deoxy-α-L-mannopyranosyl)-β-D-glucopyranosyl] ether] | – | – | 4000 nM | 2100 nM | –
5 | NS(=O)(=O)c1ccc(Nc2nc(-c3ccccc3)cs2)cc1 [SR1-492469] | – | – | 859 nM | 311 nM | –
6 | COc1cc2c(cc1O)C[C@H]1c3c(cc(O)c(OC)c3-2)CCN1C [SR1-758928, boldine] | – | – | 7600 nM | 2000 nM | –
7 | COc1ccc(-c2cc(C(F)(F)F)n3ncc(C(=O)NCCCn4ccnc4C)c3n2)cc1 [SR3-5210] | – | 2.7 nM | – | – | –
8 | COc1ccc(-c2cc(=O)c3c(O)cc(OC)c(OC)c3o2)c(OC)c1 [SR5-2616, 2-(2,4-dimethoxyphenyl)-5-hydroxy-7,8-dimethoxy-4H-chromen-4-one] | – | – | 2100 nM | 1600 nM | –
9 | O=C(NCCCn1ccnc1)c1cnn2c(C(F)(F)F)cc(-c3ccc(Br)cc3)nc12 [SR0-24082] | – | – | – | – | ~40% effective at nM, fully effective at 10 nM
10 | Cc1nc(C)c(-c2csc(Nc3ccc(S(N)(=O)=O)cc3)n2)s1 [SR-27807] | – | 50 nM | – | – | –
11 | Cc1ccc(-c2nnc3c4ccccc4c(C)nn23)cc1S(=O)(=O)NCc1cccnc1 [SR5-22839] | – | – | 92 nM | 28 nM | –
12 | CNS(=O)(=O)c1cc(-c2nnc3c4ccccc4c(C)nn23)ccc1C [SR1-115255] | – | – | 1200 nM | 196 nM | –
13 | COc1cc2c(cc1OC)[C@H]1[C@@H](C)c3ccc(OC)c(OC)c3CN1CC2 [SR5-2225, corydaline] | – | – | 2000 nM | 1300 nM | –
14 | COc1cc(OC)c2cc(-c3ccncc3)cnc2c1 [DMPQ] | – | – | 5500 nM | 505 nM | –
15 | COCCNS(=O)(=O)c1cc(-c2nnc3c4ccccc4c(C)nn23)ccc1C [SR5-22841] | – | – | 688 nM | 130 nM | –
16 | COc1ccc(-c2cc(C(F)(F)F)n3ncc(C(=O)NCCCn4ccnc4)c3n2)cc1 [SR0-28468] | – | > 50 nM | – | – | –
17 | Cc1ccc(-c2cc(C(F)F)n3ncc(C(=O)NCCCn4ccnc4)c3n2)cc1 [SR-024088] | >80% effective at 1 nM | – | – | – | –
18 | Cc1ccc(-c2cc(C(F)(F)F)n3ncc(C(=O)NCCCn4ccnc4)c3n2)cc1 [SR1-527764] | – | – | 7.1 nM | 1.9 nM | –
19 | COc1ccc(-c2cc(C(F)(F)F)n3ncc(C(=O)NCCCn4ccnc4)c3n2)cc1 [SR0-24081] | – | 0.5 nM | – | – | –
20 | CC(=O)Nc1cccc(-c2csc(Nc3ccc(S(N)(=O)=O)cc3)n2)c1 [SR1-364643] | – | – | 263 nM | 53 nM | –
21 | Cc1nc2ncccn2c1-c1csc(Nc2ccc(S(N)(=O)=O)cc2)n1 [SR1-477264] | – | – | 597 nM | 155 nM | –
22 | COc1cc2c(cc1OC)-c1cc3ccc(OC)c(OC)c3c[n+]1CC2 [SR1-841226, palmatine chloride] | – | – | 2000 nM | 1100 nM | –
23 | O=C(NCCCn1ccnc1)c1cnn2c(C(F)(F)F)cc(-c3ccc(-c4ccco4)cc3)nc12 [SR1-550907] | – | – | 9.7 nM | 2.9 nM | –

Row | Structure (SMILES) | Viability EC50: % effective (Cells exposed to TPrP; at 1 nM) | EC50 (Cells exposed to TPrP) | EC50 [1] | EC50 [2] | Viability EC50: % effective (Cells exposed to TPrP)
24 | COc1ccc2cc3[n+](cc2c1OC)CCc1cc2c(cc1-3)OCO2 [SR1-711827, berberine chloride] | – | – | 13200 nM | 3100 nM | –
25 | COc1ccc2c3c([nH]c2c1)C(C)=NCC3 [SR1-721899, harmaline] | – | – | 14000 nM | 3800 nM | –
26 | COc1ccc2c(c1)[nH]c1c(C)nccc12 [SR5-1527, methoxy harman] | – | – | 14000 nM | 1800 nM | –
27 | COc1ccc(-c2cc(C(F)(F)F)n3ncc(C(=O)NCCCn4ccnc4)c3n2)cc1 [SR3-5315] | – | > 16 nM | – | – | –
28 | NS(=O)(=O)c1ccc(Nc2nc(-c3ccc4ccccc4c3)cs2)cc1 [SR1-281377] | – | – | 1200 nM | 192 nM | –
29 | O=c1cc(-c2ccc(O)cc2)oc2cc(O[C@@H]3O[C@H](CO)[C@@H](O)[C@H](O)[C@H]3OC3OC[C@](O)(CO)[C@H]3O)cc(O)c12 (stereo partly drawn) [SR1-712126] | – | – | 10700 nM | 4600 nM | –
30 | Cc1ccc(-c2nnc3c4ccccc4c(C)nn23)cc1S(=O)(=O)N1CCN(CCO)CC1 [SR1-626887] | – | – | 9.1 nM | < 3 nM | –
31 | COc1ccc(-c2nnc3c4ccccc4c(C)nn23)cc1S(=O)(=O)NC(C)(C)CO [SR1-87819] | – | – | 682 nM | 98 nM | –
32 | COc1ccc(-c2cc(=O)c3c(OC)c(OC)c(OC)c(OC)c3o2)cc1 [SR-05000002625, 5,6,7,8-tetramethoxy-2-(4-methoxyphenyl)-4H-chromen-4-one] | – | – | 6000 nM | 1900 nM | –
33 | Cc1nc2sccn2c1-c1csc(Nc2ccc(S(N)(=O)=O)cc2)n1 [SR1-477230] | – | – | 204 nM | 47 nM | –
34 | COc1cc(OC)c2c(=O)cc(-c3ccccc3)oc2c1 [SR1-758978, 5,7-dimethoxy-2-phenyl-4H-chromen-4-one] | – | – | > 10000 nM | 1700 nM | –
35 | Cc1ccc(-c2nnc3c4ccccc4c(C)nn23)cc1S(=O)(=O)N1CCN(C)CC1 [SR1-115275] | – | – | 2600 nM | 839 nM | –
36 | COc1ccc(-c2cc(C(F)(F)F)n3ncc(C(=O)NCCCn4ccnc4)c3n2)cc1 [SR3-5230] | – | > 32 nM | – | – | –
37 | CN1C[C@H](CO)C=C2c3cccc4[nH]cc(c34)C[C@H]21 [SR1-758923, lysergol] | – | – | > 15000 nM | 1900 nM | –
38 | CNC(=O)c1cc2c(cn1)[nH]c1ccccc12 [SR1-75632, N-methyl-9H-pyrido[3,4-b]indole-3-carboxamide] | – | – | > 15000 nM | 3200 nM | –
39 | O=C(NCCCn1ccnc1)c1cnn2c(C(F)(F)F)cc(-c3ccc(F)cc3)nc12 [SR0-24083] | ~40% effective at 1 nM, fully effective at 10 nM | – | – | – | –
40 | COc1ccc(-c2nnc3c4ccccc4c(C)nn23)cc1S(=O)(=O)NCc1cccnc1 [SR5-22838] | – | – | 380 nM | 90 nM | –
41 | NS(=O)(=O)c1ccc(Nc2nc(-c3ccc(F)cc3)cs2)cc1 [SR1-742242] | – | – | 946 nM | 197 nM | –
42 | COc1ccc(-c2cc(=O)c3c(O)c(OC)c(OC)c(OC)c3o2)cc1OC [SR-05000002635, 2-(3,4-dimethoxyphenyl)-5-hydroxy-6,7,8-trimethoxy-4H-chromen-4-one] | – | – | 609 nM | 81 nM | –
43 | COc1ccc(C2CC(=O)c3cc(OC)ccc3O2)cc1 (stereo not drawn) [SR5-2542, 6-methoxy-2-(4-methoxyphenyl) chroman-4-one] | – | – | > 10000 nM | 2100 nM | –
44 | CC1=C[C@@H]2c3cccc4[nH]cc(c34)C[C@H]2N(C)C1 [SR1-75354, agroclavine] | – | – | 2000 nM | 1600 nM | –
45 | COc1ccc(-c2cc(=O)c3c(O)cc(OC)cc3o2)cc1 [SR5-2549, 5-hydroxy-7-methoxy-2-(4-methoxyphenyl)-4H-chromen-4-one] | – | – | 7300 nM | 2000 nM | –
46 | COc1ccc(-c2csc(Nc3ccc(S(N)(=O)=O)cc3)n2)cc1 [SR1-223735] | – | – | 360 nM | 87 nM | –
